Columns and labels:
[1] = system: Septoria tritici (SEPTTR); test: 3-day curative test (3DC) vs. leaf blotch of wheat; format: in vivo; conditions: Zymoseptoria tritici, read-out: % DC Obs (percent disease control observed); for pest or weed control at 1.5 g/ha: application rate 1.5 g ai/Ha, SC formulation, track sprayer; for pest or weed control at 0.2 ppm: application rate 0.2 ppm
Protocol: (§1) Evaluation of Curative and Protectant Activity of Fungicide Mixtures vs. Leaf Blotch of Wheat (Mycosphaerella graminicola; anamorph: Septoria tritici; Bayer code: SEPTTR)
(§2) Wheat plants (variety Yuma) were grown from seed in a greenhouse in plastic pots with a surface area of 27.5 square centimeters (cm2) containing 50% mineral soil/50% soil-less Metro mix, with 8-12 seedlings per pot. The plants were employed for testing when the first leaf was fully emerged, which typically took 7 to 8 days after planting. Test plants were inoculated with an aqueous spore suspension of Septoria tritici either 3-days prior to (3-day curative test; 3DC) or 1-day after fungicide treatments (1-day protectant test; 1DP). After inoculation the plants were kept at 100% relative humidity (one day in a dark dew chamber followed by two days in a lighted mist chamber) to permit spores to germinate and infect the leaf. The plants were then transferred to a greenhouse until disease symptoms were fully expressed.
(§3) For the mixture studies with compound of Formula IA: Treatments consisted of fungicides, including a compound of Formula IA, epoxiconazole, prothioconazole, azoxystrobin, pyraclostrobin, penthiopyrad, isopyrazam, bixafen, boscalid, prochloraz, chlorothalonil, and isobutyric acid (3S,6S,7R,8R)-8-benzyl-3-[(3-isobutyryloxymethoxy-4-methoxypyridine-2-carbonyl)-amino]-6-methyl-4,9-dioxo-[1,5]dioxonan-7-yl ester (compound A), applied either individually or as two-way mixtures with a compound of Formula IA. Technical grades of materials were dissolved in acetone to make stock solutions, which were then used to perform three-fold dilutions in acetone either for each individual fungicide component or for the two-way mixtures. Desired fungicide rates were obtained after mixing dilutions with nine volumes of water containing 110 parts per million (ppm) Triton X-100. Ten mL fungicide solutions were applied onto six pots of plants using an automated booth sprayer, which utilized two 6218-1/4 JAUPM spray nozzles operating at 20 pounds per square inch (psi) set at opposing angles to cover both leaf surfaces. All sprayed plants were allowed to air dry prior to further handling. Control plants were sprayed in the same manner with the solvent blank.
(§4) For the mixture studies with compound of Formula IB: Compound IB and the compound B or their two-way mixtures were diluted in three-fold series using suspension concentrate (SC) formulations in 0.1% Trycol 5941. Spray solutions were applied onto plants using a track sprayer with an application volume of 200 Liters/hectare (L/Ha).
(§5) When disease reached 80 to 100% on the control plants, infection levels were assessed on treated plants visually and scored on a scale of 0 to 100 percent. Percentage of disease control was then calculated using the ratio of disease on treated plants relative to control plants.
(§6) Colby's equation was used to determine the fungicidal effects expected from the mixtures. (See Colby, S. R. Calculation of the synergistic and antagonistic response of herbicide combinations. Weeds 1967, 15, 20-22.)
(§7) The following equation was used to calculate the expected activity of mixtures containing two active ingredients, A and B:
(§8) A=observed efficacy of active component A at the same concentration as used in the mixture;
(§9) B=observed efficacy of active component B at the same concentration as used in the mixture.

[2] = system: Septoria tritici (SEPTTR); test: 1-day protectant test (1DP) vs. leaf blotch of wheat; format: in vivo; conditions: Zymoseptoria tritici, read-out: % DC Obs (percent disease control observed); for pest or weed control at 1.5 g/ha: application rate 1.5 g ai/Ha, SC formulation, track sprayer; for pest or weed control at 0.2 ppm: application rate 0.2 ppm
Protocol: as §1, §2, §3, §4, §5, §6, §7, §8, §9

[3] = 3DC SEPTTR, application rate 0.6 ppm
[4] = 3DC SEPTTR, application rate 1.8 ppm
[5] = 3DC SEPTTR, application rate 5.6 ppm
[6] = 1DP SEPTTR, application rate 0.6 ppm
[7] = 1DP SEPTTR, application rate 1.8 ppm
[8] = 1DP SEPTTR, application rate 5.6 ppm

COc1ccnc(C(=O)N[C@H]2COC(=O)[C@H](Cc3ccccc3)[C@@H](OC(=O)C(C)C)[C@H](C)OC2=O)c1OCOC(=O)C(C)C [A, Isobutyric acid (3S,6S,7R,8R)-8-benzyl-3-[(3-isobutyryloxymethoxy-4-methoxy-pyridine-2-carbonyl)-amino]-6-methyl-4,9-dioxo-[1,5]dioxonan-7-yl ester]
pest or weed control at 0.45 ppm [1]: 22%
pest or weed control at 1.35 ppm [1]: 52%
pest or weed control at 0.45 ppm [2]: 3%
pest or weed control at 1.35 ppm [2]: 80%

CO/C=C(/C(=O)OC)c1ccccc1Oc1cc(Oc2ccccc2C#N)ncn1 [Azoxystrobin, methyl (αE)-2-[[6-(2-cyanophenoxy)-4-pyrimidinyl]oxy]-α-(methoxymethylene)benzeneacetate]
pest or weed control at 0.6 ppm [1, 3]: 10%
pest or weed control at 1.8 ppm [1, 4]: 14%
pest or weed control at 5.6 ppm [1, 5]: 20%
pest or weed control at 0.6 ppm [2, 6]: 3%
pest or weed control at 1.8 ppm [2, 7]: 3%
pest or weed control at 5.6 ppm [2, 8]: 33%

Fc1cc(Oc2cc(C(F)(F)F)ccn2)ccc1CCNc1ncnc2c(F)ccc(F)c12 [B, (5,8-Difluoroquinazolin-4-yl)-{2-[2-fluoro-4-(4-trifluoromethylpyridin-2-yloxy)-phenyl]-ethyl}-amine]
pest or weed control at 1.5 g/ha ([1]; 3DC SEPTTR): 41%
pest or weed control at 1.5 g/ha ([2]; 1DP SEPTTR): 36%

Cn1cc(C(=O)Nc2ccc(F)cc2-c2ccc(Cl)c(Cl)c2)c(C(F)F)n1 [Bixafen, N-(3′,4′-dichloro-5-fluoro[1,1′-biphenyl]-2-yl)-3-(difluoromethyl)-1-methyl-1H-pyrazole-4-carboxamide]
pest or weed control at 0.2 ppm ([1]; 3DC SEPTTR): 6%
pest or weed control at 0.6 ppm [1, 3]: 4%
pest or weed control at 1.8 ppm [1, 4]: 14%
pest or weed control at 0.2 ppm ([2]; 1DP SEPTTR): 3%
pest or weed control at 0.6 ppm [2, 6]: 7%
pest or weed control at 1.8 ppm [2, 7]: 12%

O=C(Nc1ccccc1-c1ccc(Cl)cc1)c1cccnc1Cl [Boscalid, 2-chloro-N-(4′-chloro[1,1′-biphenyl]-2-yl)-3-pyridinecarboxamide]
pest or weed control at 1.8 ppm [1, 4]: 12%
pest or weed control at 5.6 ppm [1, 5]: 34%
pest or weed control at 1.8 ppm [2, 7]: 5%
pest or weed control at 5.6 ppm [2, 8]: 30%

N#Cc1c(Cl)c(Cl)c(Cl)c(C#N)c1Cl [Chlorothalanil, 2,4,5,6-tetrachloro-1,3-benzenedicarbonitrile]
pest or weed control at 13.5 ppm ([1]; 3DC SEPTTR, application rate 13.5 ppm): 4%
pest or weed control at 42 ppm ([1]; 3DC SEPTTR, application rate 42 ppm): 4%
pest or weed control at 125 ppm ([1]; 3DC SEPTTR, application rate 125 ppm): 6%
pest or weed control at 13.5 ppm ([2]; 1DP SEPTTR, application rate 13.5 ppm): 0%
pest or weed control at 42 ppm ([2]; 1DP SEPTTR, application rate 42 ppm): 2%
pest or weed control at 125 ppm ([2]; 1DP SEPTTR, application rate 125 ppm): 0%

Cc1ccc(COc2ncc(F)c(N)n2)cc1 [Compound IA]
pest or weed control at 0.03 ppm ([1]; 3DC SEPTTR, application rate 0.03 ppm): 2%
pest or weed control at 0.1 ppm ([1]; 3DC SEPTTR, application rate 0.1 ppm): 4%
pest or weed control at 0.3 ppm ([1]; 3DC SEPTTR, application rate 0.3 ppm): 10%
pest or weed control at 0.9 ppm ([1]; 3DC SEPTTR, application rate 0.9 ppm): 44%
pest or weed control at 2.8 ppm ([1]; 3DC SEPTTR, application rate 2.8 ppm): 94%
pest or weed control at 8.3 ppm ([1]; 3DC SEPTTR, application rate 8.3 ppm): 100%
pest or weed control at 0.03 ppm ([2]; 1DP SEPTTR, application rate 0.03 ppm): 2%
pest or weed control at 0.1 ppm ([2]; 1DP SEPTTR, application rate 0.1 ppm): 3%
pest or weed control at 0.3 ppm ([2]; 1DP SEPTTR, application rate 0.3 ppm): 0%
pest or weed control at 0.9 ppm ([2]; 1DP SEPTTR, application rate 0.9 ppm): 22%
pest or weed control at 2.8 ppm ([2]; 1DP SEPTTR, application rate 2.8 ppm): 85%
pest or weed control at 8.3 ppm ([2]; 1DP SEPTTR, application rate 8.3 ppm): 98%

Nc1nc(OCc2ccc(F)cc2)ncc1F [Compound IB]
pest or weed control at 1.5 g/ha ([1]; 3DC SEPTTR): 74%
pest or weed control at 1.5 g/ha ([2]; 1DP SEPTTR): 46%

Fc1ccc([C@]2(Cn3cncn3)O[C@H]2c2ccccc2Cl)cc1 [Epoxiconazole, re1-1-[[(2R,3S)-3-(2-chlorophenyl)-2-(4-fluorophenyl)oxiranyl]methyl]-1H-1,2,4-triazole]
pest or weed control at 0.125 ppm ([1]; 3DC SEPTTR, application rate 0.125 ppm): 18%
pest or weed control at 0.375 ppm ([1]; 3DC SEPTTR, application rate 0.375 ppm): 46%
pest or weed control at 0.125 ppm ([2]; 1DP SEPTTR, application rate 0.125 ppm): 2%
pest or weed control at 0.375 ppm ([2]; 1DP SEPTTR, application rate 0.375 ppm): 83%

CC(C)C1C2CCC1c1c(NC(=O)c3cn(C)nc3C(F)F)cccc12 (stereo not drawn) [Isopyrazam, 3-(difluoromethyl)-1-methyl-N-[1,2,3,4-tetrahydro-9-(1-methylethyl)-1,4-methanonaphthalen-5-yl]-1H-pyrazole-4-carboxamide]
pest or weed control at 0.6 ppm [1]: 10%
pest or weed control at 1.8 ppm [1]: 18%
pest or weed control at 0.6 ppm [2]: 15%
pest or weed control at 1.8 ppm [2]: 23%

CC(C)CC(C)c1sccc1NC(=O)c1cn(C)nc1C(F)(F)F (stereo not drawn) [Penthiopyrad, N-[2-(1,3-dimethylbutyl)-3-thienyl]-1-methyl-3-(trifluoromethyl)-1H-pyrazole-4-carboxamide]
pest or weed control at 0.2 ppm ([1]; 3DC SEPTTR): 8%
pest or weed control at 0.6 ppm [1, 3]: 4%
pest or weed control at 1.8 ppm [1, 4]: 4%
pest or weed control at 0.2 ppm ([2]; 1DP SEPTTR): 2%
pest or weed control at 0.6 ppm [2, 6]: 10%
pest or weed control at 1.8 ppm [2, 7]: 17%

CCCN(CCOc1c(Cl)cc(Cl)cc1Cl)C(=O)n1ccnc1 [Prochloraz, N-propyl-N-[2-(2,4,6-trichlorophenoxy)ethyl]-1H-imidazole-1-carboxamide]
pest or weed control at 1.8 ppm [1]: 24%
pest or weed control at 5.6 ppm [1]: 22%
pest or weed control at 1.8 ppm [2]: 10%
pest or weed control at 5.6 ppm [2]: 33%

OC(Cc1ccccc1Cl)(Cn1[nH]cnc1=S)C1(Cl)CC1 (stereo not drawn) [Prothioconazole, 2-[2-(1-chlorocyclopropyl)-3-(2-chlorophenyl)-2-hydroxypropyl]-1,2-dihydro-3H-1,2,4-triazole-3-thione]
pest or weed control at 0.6 ppm [1, 3]: 10%
pest or weed control at 1.8 ppm [1, 4]: 8%
pest or weed control at 5.6 ppm [1, 5]: 20%
pest or weed control at 0.6 ppm [2, 6]: 2%
pest or weed control at 1.8 ppm [2, 7]: 2%
pest or weed control at 5.6 ppm [2, 8]: 25%

Reference: patent US20110053966A1, “SYNERGISTIC FUNGICIDAL COMPOSITIONS CONTAINING A 5-FLUOROPYRIMIDINE DERIVATIVE FOR FUNGAL CONTROL IN CEREALS” (DOW AGROSCIENCES LLC, priority 2009, published 2011)
